According to US20140357641A1, “IP receptor agonist heterocyclic compounds” (NOVARTIS AG, priority 2012, published 2014):

Biological target: T1, IP receptor (Homo sapiens, UniProt P43119)
T1 construct: expressed in transfected cells
Experiment: cAMP accumulation in CHO cells stably expressing the IP receptor (CHO-IP), Perkin Elmer AlphaScreen assay
Type: cell-based
Settings: agonist activity, 1 hour at room temperature
Protocol: Activity of compounds at the IP receptor (IP receptor) is assessed by measuring cAMP accumulation in CHO cells stably expressing the IP receptor (CHO-IP) using the Perkin Elmer AlphaScreen assay. This technology measures the endogenous production of cAMP, in a non-radioactive luminescence proximity homogenous assay. A biological reaction occurs between streptavidin coated donor beads, biotinylated cAMP and anti-cAMP acceptor beads, bringing the donor and acceptor beads close enough together so that upon excitation a fluorescence signal is produced. On production of endogenous cAMP, competition between the biotinylated cAMP and cellular-derived cAMP causes a reduction in the fluorescent signal. The reduction in signal is proportional to the amount of cAMP being produced, thus it is possible to quantify the amount of cAMP being produced on stimulation with agonist.
Test and reference compounds are prepared at 100× [final] in 100% DMSO, and diluted 1:3 using a Biomek Fx (Beckman Coulter). This is followed by an intermediate dilution to give 5× [final] in assay buffer (HBSS containing 5 mM HEPES, 0.1% (w/v) BSA). 5 μL of 5× [final] test compounds, reference compounds and buffer/DMSO control are then transferred to a 384-well white OptiPlate, containing 20 μL CHO-IP cell suspension (15,000 cells/well, prepared from frozen), and plate is incubated at room temperature for 1 hour. A cAMP standard curve is constructed for each experiment (concentration range of 10000 nM to 0.001 nM, in assay buffer) and 25 μL of each concentration added to the last two columns of the assay plate. The incubation is terminated by the addition of lysis buffer (dH2O; 0.3% (v v^−1) Tween-20) containing 20 units mL^−1 streptavidin coated donor beads and biotinylated cAMP (pre-incubated for 30 minutes) and 20 units mL^−1 anti-cAMP acceptor beads, which are added to the lysis buffer just before addition to the assay plate. The assay plate is then incubated at room temperature in the dark, for 60 minutes with gentle shaking, and read on the Envision plate reader (Perkin Elmer).
The raw data of the reference compounds, test compounds and controls are converted into cAMP concentrations, using the cAMP standard curve, in GraphPadPrism (GraphPad Software Inc). EC50 as well as maximal values of the agonist curves are determined using a 4-parameter logistic equation. The % maximum response values of all test compounds are determined using the top of the treprostinil concentration-response curve.

T1 sequence (P43119 whole entry): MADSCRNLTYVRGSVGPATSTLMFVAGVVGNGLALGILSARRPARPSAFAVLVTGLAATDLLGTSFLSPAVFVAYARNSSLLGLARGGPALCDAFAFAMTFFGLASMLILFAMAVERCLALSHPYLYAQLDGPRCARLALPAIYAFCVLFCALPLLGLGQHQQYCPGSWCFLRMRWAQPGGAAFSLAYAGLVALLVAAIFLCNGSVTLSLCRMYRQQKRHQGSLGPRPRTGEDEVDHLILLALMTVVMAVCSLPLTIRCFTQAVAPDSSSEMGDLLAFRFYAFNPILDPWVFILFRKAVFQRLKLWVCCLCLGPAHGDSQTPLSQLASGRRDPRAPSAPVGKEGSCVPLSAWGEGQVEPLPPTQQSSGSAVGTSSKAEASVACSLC

SMILES | EC50 [nM]
Cc1ccc(-c2nc3c(nc2-c2ccc(C)cc2)N(CCCCCCc2noc(=O)[nH]2)CCC3)cc1 [Example 6, 3-(6-(2,3-Di-p-tolyl-7,8-dihydropyrido[2,3-b]pyrazin-5(6H)-yl)hexyl)-1,2,4-oxadiazol-5(4H)-one] | 28.3
Cc1ccc(-c2nc3c(nc2-c2ccc(C)cc2)N(CCCCC2SC(=O)NC2=O)CCC3)cc1 (single isomer, unassigned) [1(b), (S)-5-(4-(2,3-di-p-tolyl-7,8-dihydropyrido[2,3-b]pyrazin-5(6H)-yl)butyl)thiazolidine-2,4-dione or (R)-5-(4-(2,3-di-p-tolyl-7,8-dihydropyrido[2,3-b]pyrazin-5(6H)-yl)butyl)thiazolidine-2,4-dione] | 12
Cc1ccc(-c2nc3c(nc2-c2ccc(C)cc2)N(CCCCC2CC(=O)NO2)CCC3)cc1 (centres unmarked) [Example 7, 5-(4-(2,3-Di-p-tolyl-7,8-dihydropyrido[2,3-b]pyrazin-5(6H)-yl)butyl)isoxazolidin-3-one] | 2.86
Cc1ccc(-c2nc3c(nc2-c2ccc(C)cc2)N(CCCCC2SC(=O)NC2=O)CCC3)cc1 (racemic) [Example 1, rac-5-(4-(2,3-Di-p-tolyl-7,8-dihydropyrido[2,3-b]pyrazin-5(6H)-yl)butyl)thiazolidine-2,4-dione] | 8.91
Cc1ccc(-c2nc3c(nc2-c2ccc(C)cc2)N(CCCC/C=C2/SC(=O)NC2=O)CCC3)cc1 [Example 4, 5-(5-(2,3-Ddi-p-tolyl-7,8-dihydropyrido[2,3-b]pyrazin-5(6H)-yl)pentylidene)thiazolidine-2,4-dione] | 2
Cc1ccc(-c2nc3c(nc2-c2ccc(C)cc2)N(CCCCc2cc(O)no2)CCC3)cc1 [Example 8, 5-(4-(2,3-Di-p-tolyl-7,8-dihydropyrido[2,3-b]pyrazin-5(6H)-yl)butyl)isoxazol-3-ol] | 34.3
Cc1ccc(-c2nc3c(nc2-c2ccc(C)cc2)N(CCCCCC2=C(O)CCC2=O)CCC3)cc1 [Example 3, 2-(5-(2,3-Di-p-tolyl-7,8-dihydropyrido[2,3-b]pyrazin-5(6H)-yl)pentyl)-3-hydroxycyclopent-2-enone] | 7.68
Cc1ccc(-c2nc3c(nc2-c2ccc(C)cc2)N(CCCCC2SC(=O)NC2=O)CCC3)cc1 (single isomer, unassigned) [1(a), (S)-5-(4-(2,3-di-p-tolyl-7,8-dihydropyrido[2,3-b]pyrazin-5(6H)-yl)butyl)thiazolidine-2,4-dione or (R)-5-(4-(2,3-di-p-tolyl-7,8-dihydropyrido[2,3-b]pyrazin-5(6H)-yl)butyl)thiazolidine-2,4-dione] | 3.71
Cc1ccc(-c2nc3c(nc2-c2ccc(C)cc2)N(CCCCCc2noc(=O)[nH]2)CCC3)cc1 [Example 6.1, 3-(5-(2,3-Di-p-tolyl-7,8-dihydropyrido[2,3-b]pyrazin-5(6H)-yl)pentyl)-1,2,4-oxadiazol-5(4H)-one] | 15.3
Cc1ccc(-c2nc3c(nc2-c2ccc(C)cc2)N(CCCCc2noc(=O)[nH]2)CCC3)cc1 [Example 6.2, 3-(4-(2,3-Di-p-tolyl-7,8-dihydropyrido[2,3-b]pyrazin-5(6H)-yl)butyl)-1,2,4-oxadiazol-5(4H)-one] | 14.7
Cc1ccc(-c2nc3c(nc2-c2ccc(C)cc2)N(CCCCC2=C(O)CCC2=O)CCC3)cc1 [Example 5, 2-(4-(2,3-Ddi-p-tolyl-7,8-dihydropyrido[2,3-b]pyrazin-5(6H)-yl)butyl)-3-hydroxycyclopent-2-enone] | 165
